According to patent US8168164B2, “Targeted conjugates and radiation” (Purdue Research Foundation, priority 2006, dated 2012):

Tests used:
Type in all cases: in vivo, mice
[1] = tested on: M109 cells; assay: Effect of ligand-immunogen conjugates in combination with radiation on tumor volume
Protocol: (§1) Six to eight-week old (˜20-22 grams) female Balb/c mice were immunized subcutaneously at multiple sites with fluorescein (FITC)-labeled keyhole limpet hemocyanin (KLH) and were injected with GPI-0100, a saponin adjuvant. After assuring that anti-FITC antibody titers were high in all mice (as evidenced by the results of ELISA assays of serum samples of the mice), each animal was injected subcutaneously in the shoulder with 1×10^6 M109 cells following the pre-immunization with FITC-KLH. M109 cells are a syngeneic lung cancer cell line that expresses high levels of the folate receptor. Cancer loci were then allowed to attach and grow. When the tumor size reached about 300 mm^2 (about 2 weeks post M109 cell injection), treatments were initiated (day 1).
The mice were divided into four groups (4 mice per group). One group was injected subcutaneously with phosphate-buffered saline (PBS). Two other groups were injected subcutaneously with 500 nmoles/kg of folate-FITC and 20,000 IU/dose of recombinant human IL-2 in a series of 5 daily injections for three weeks (5 days on and 2 days off). The mice were also injected subcutaneously with IFN-α at 25,000 IU/dose (3 times per week for 3 weeks). One of these groups also received a single dose of radiation of 3 Gy on day 1. The fourth group received only a single dose of radiation of 3 Gy on day 1. The radiation was performed with a device approved for human use and calibrated to give the desired radiation dose to mice.
The efficacy of these therapies were then evaluated by monitoring tumor volumes. Tumor volumes were calculated using the equation V=a×b^2/2, where “a” is the length of the tumor and “b” is the width expressed in millimeters. The tumors were measured using calipers.
The procedures were similar to those described in Example 3 except that the radiation was given in three doses of three Gy each on days 1, 5, and 12.

[2] = tested on: M109 cells; assay: Effect on non-irradiated tumors (tumor volume, two tumor sites); conditions: folate-FITC
Protocol: as §1, with “each animal was injected subcutaneously in the shoulder with 1×10^6 M109 cells following” left out
[…] One group was injected subcutaneously with phosphate-buffered saline (PBS). Two other groups were injected subcutaneously with 500 nmoles/kg of folate-FITC and 20,000 IU/dose of recombinant human IL-2 in a series of 5 daily injections for three weeks (5 days on and 2 days off). The mice were also injected subcutaneously with IFN-α at 25,000 IU/dose (3 times per week for 3 weeks). […]
The efficacy of these therapies were then evaluated by monitoring tumor volumes. Tumor volumes were calculated using the equation V=a×b^2/2, where “a” is the length of the tumor and “b” is the width expressed in millimeters. The tumors were measured using calipers. […]

[3] = tested on: M109 tumors; assay: Effect of ligand-immunogen conjugates in combination with taxol on tumor volume; conditions: folate-FITC and cytokines with 3 doses of taxol (20 mg/kg, every other day) in place of radiation

Q: Which “effect on tumor volume (FIG. 1)” value ([1]; 500 nmoles/kg folate-FITC + IL-2 20,000 IU/dose + IFN-α 25,000 IU/dose s.c., 3 weeks, single dose of radiation of 3 Gy on day 1, FITC-KLH immunized Balb/c mice) does the source give for `Nc1nc2ncc(CNc3ccc(C(=O)NC(CCC(=O)NCCNC(=S)Nc4ccc(C(=O)O)c(-c5c6ccc(=O)cc-6oc6cc(O)ccc56)c4)C(=O)O)cc3)nc2c(=O)[nH]1` (stereo not drawn) [folate-FITC] here?
A: act synergistically with low dose radiation to eliminate tumors

Q: What about the “effect on tumor volume (FIG. 2)” value ([1]; folate-FITC plus IL-2 and IFN-α, radiation three doses of three Gy on days 1, 5, and 12) of the same compound?
A: synergistic with low dose radiation to eliminate tumors

Q: What about the “mice tumor-free at the end of the assay” value ([1]; folate-FITC plus IL-2 and IFN-α, radiation three doses of three Gy on days 1, 5, and 12, 4 mice per group) of the same compound?
A: Two out of the four mice

Q: What about the “mice completely tumor-free after treatment” value ([2]; cytokines and radiation (3 Gy days 1 and 5 on tail tumor only), 6 mice per group) of the same compound?
A: Two out of six mice

Q: What about the “response of tumors on the same animal that were not irradiated (FIG. 4)” value ([2]; cytokines and radiation, tail tumor irradiated days 1 and 5 with 3 Gy per dose, neck tumor not irradiated) of the same compound?
A: improved response

Q: What about the “effect on tumor mass in combination with taxol (FIG. 5)” value [3] of the same compound?
A: not synergistic with taxol
